In ChEMBL document CHEMBL4396963, “An exploration of solvent-front region high affinity moiety leading to novel potent ALK & ROS1 dual inhibitors with mutant-combating effects” (Bioorg Med Chem, 2019):

Columns and labels:
[1] = target: Hepatocyte growth factor receptor (Homo sapiens, UniProt P08581); assay: Inhibition of recombinant human N-terminal GST-tagged MET (956 to 1390 residues) cytoplasmic domain expressed in baculovirus expression system using Srctide as substrate incubated for 1 hr by mobility shift assay
[2] = target: ALK tyrosine kinase receptor (Homo sapiens, UniProt Q9UM73, L1196M); assay: Inhibition of recombinant human N-terminal GST-tagged ALK (1058 to 1620 residues) cytoplasmic domain L1196M mutant expressed in baculovirus expression system using srctide as substrate incubated for 1 hr by mobility shift assay
[3] = target: ALK tyrosine kinase receptor (Homo sapiens, UniProt Q9UM73); assay: Inhibition of recombinant human N-terminal GST-tagged ALK (1058 to 1620 residues) cytoplasmic domain expressed in baculovirus expression system using srctide as substrate incubated for 1 hr by mobility shift assay
NCI-H2228 = assay: Antiproliferative activity against human NCI-H2228 cells assessed as reduction in cell viability incubated for 72 hrs by MTT assay; format: functional, cell-based; conditions: NCI-H2228, 72 h
KARPAS-299 = assay: Antiproliferative activity against human KARPAS299 cells assessed as reduction in cell viability incubated for 72 hrs by MTT assay; format: functional, cell-based; conditions: KARPAS-299, 72 h
HCC78 = assay: Antiproliferative activity against human HCC78 cells assessed as reduction in cell viability incubated for 72 hrs by MTT assay; format: functional, cell-based; conditions: HCC78, 72 h
A549 [4] = assay: Antiproliferative activity against human A549 cells harbouring […] mutant assessed as reduction in cell viability incubated for 72 hrs by MTT assay; format: functional, cell-based; conditions: A549, 72 h
[5] = target: Proto-oncogene tyrosine-protein kinase ROS (Homo sapiens, UniProt P08922); assay: Inhibition of recombinant human N-terminal GST-tagged ROS (1883 to 2347 residues) cytoplasmic domain expressed in baculovirus expression system using IRS1 as substrate incubated for 1 hr by mobility shift assay
[6] = target: Epidermal growth factor receptor (Homo sapiens, UniProt P00533)
Description: Inhibition of recombinant human N-terminal GST-tagged EGFR (669 to 1210 residues) cytoplasmic domain expressed in baculovirus expression system using Srctide as substrate incubated for 1 hr by mobility shift assay

[7] = target: ALK tyrosine kinase receptor (Homo sapiens, UniProt Q9UM73, G1202R); assay: Inhibition of recombinant human N-terminal GST-tagged ALK (1058 to 1620 residues) cytoplasmic domain G1202R mutant using srctide as substrate incubated for 1 hr by mobility shift assay
A549 [8] = assay: cells; conditions: Homo sapiens, A549, 72 h
HT-29 = assay: cells; conditions: Homo sapiens, HT-29, 72 h
Description: Antiproliferative activity against human HT-29 cells assessed as reduction in cell viability incubated for 72 hrs by MTT assay

ALK tyrosine kinase receptor (Homo sapiens, UniProt Q9UM73), sequence (Q9UM73 whole entry, the tested form may be a part): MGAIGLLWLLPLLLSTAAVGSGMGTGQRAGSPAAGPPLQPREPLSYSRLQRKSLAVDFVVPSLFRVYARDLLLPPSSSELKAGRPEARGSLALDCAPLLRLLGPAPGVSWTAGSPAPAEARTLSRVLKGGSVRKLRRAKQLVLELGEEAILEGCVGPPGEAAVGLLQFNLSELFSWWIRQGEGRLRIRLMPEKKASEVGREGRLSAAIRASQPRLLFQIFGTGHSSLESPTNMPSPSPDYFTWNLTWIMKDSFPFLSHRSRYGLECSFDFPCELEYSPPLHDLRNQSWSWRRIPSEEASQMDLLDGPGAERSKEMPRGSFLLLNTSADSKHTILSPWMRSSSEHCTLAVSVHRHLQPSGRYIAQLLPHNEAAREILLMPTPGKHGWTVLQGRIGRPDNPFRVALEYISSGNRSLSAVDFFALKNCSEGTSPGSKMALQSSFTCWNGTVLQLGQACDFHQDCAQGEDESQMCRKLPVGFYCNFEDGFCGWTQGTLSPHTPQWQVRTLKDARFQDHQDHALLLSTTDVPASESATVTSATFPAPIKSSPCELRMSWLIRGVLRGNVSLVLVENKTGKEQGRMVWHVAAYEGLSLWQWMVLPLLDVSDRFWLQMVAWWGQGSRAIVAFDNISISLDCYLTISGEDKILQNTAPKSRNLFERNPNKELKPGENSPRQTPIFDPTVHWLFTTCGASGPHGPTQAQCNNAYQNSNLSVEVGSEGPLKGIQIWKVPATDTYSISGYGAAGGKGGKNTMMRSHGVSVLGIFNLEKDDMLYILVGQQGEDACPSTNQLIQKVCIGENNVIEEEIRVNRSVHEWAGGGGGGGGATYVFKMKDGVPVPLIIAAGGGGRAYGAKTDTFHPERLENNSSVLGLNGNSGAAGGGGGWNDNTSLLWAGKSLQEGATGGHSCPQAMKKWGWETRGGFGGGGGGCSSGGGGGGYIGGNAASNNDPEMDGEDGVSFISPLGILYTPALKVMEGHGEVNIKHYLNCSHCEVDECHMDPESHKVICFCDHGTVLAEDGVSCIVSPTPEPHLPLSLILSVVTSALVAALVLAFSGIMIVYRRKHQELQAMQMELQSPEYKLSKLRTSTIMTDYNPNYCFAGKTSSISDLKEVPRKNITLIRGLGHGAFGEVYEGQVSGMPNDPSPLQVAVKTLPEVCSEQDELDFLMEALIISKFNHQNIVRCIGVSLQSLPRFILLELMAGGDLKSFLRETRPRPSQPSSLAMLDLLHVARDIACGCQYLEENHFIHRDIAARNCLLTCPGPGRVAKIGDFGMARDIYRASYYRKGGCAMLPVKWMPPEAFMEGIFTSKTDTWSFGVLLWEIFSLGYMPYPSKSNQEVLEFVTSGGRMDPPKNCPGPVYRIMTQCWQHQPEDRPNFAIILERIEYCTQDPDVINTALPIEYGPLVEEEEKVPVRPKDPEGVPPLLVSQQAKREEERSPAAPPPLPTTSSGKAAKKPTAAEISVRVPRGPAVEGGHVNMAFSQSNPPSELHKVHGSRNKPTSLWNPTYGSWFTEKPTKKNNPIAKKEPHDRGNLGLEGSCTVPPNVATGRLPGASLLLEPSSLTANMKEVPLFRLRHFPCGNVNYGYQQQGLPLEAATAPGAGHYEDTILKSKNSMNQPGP
Hepatocyte growth factor receptor, sequence (P08581 whole entry, the tested form may be a part): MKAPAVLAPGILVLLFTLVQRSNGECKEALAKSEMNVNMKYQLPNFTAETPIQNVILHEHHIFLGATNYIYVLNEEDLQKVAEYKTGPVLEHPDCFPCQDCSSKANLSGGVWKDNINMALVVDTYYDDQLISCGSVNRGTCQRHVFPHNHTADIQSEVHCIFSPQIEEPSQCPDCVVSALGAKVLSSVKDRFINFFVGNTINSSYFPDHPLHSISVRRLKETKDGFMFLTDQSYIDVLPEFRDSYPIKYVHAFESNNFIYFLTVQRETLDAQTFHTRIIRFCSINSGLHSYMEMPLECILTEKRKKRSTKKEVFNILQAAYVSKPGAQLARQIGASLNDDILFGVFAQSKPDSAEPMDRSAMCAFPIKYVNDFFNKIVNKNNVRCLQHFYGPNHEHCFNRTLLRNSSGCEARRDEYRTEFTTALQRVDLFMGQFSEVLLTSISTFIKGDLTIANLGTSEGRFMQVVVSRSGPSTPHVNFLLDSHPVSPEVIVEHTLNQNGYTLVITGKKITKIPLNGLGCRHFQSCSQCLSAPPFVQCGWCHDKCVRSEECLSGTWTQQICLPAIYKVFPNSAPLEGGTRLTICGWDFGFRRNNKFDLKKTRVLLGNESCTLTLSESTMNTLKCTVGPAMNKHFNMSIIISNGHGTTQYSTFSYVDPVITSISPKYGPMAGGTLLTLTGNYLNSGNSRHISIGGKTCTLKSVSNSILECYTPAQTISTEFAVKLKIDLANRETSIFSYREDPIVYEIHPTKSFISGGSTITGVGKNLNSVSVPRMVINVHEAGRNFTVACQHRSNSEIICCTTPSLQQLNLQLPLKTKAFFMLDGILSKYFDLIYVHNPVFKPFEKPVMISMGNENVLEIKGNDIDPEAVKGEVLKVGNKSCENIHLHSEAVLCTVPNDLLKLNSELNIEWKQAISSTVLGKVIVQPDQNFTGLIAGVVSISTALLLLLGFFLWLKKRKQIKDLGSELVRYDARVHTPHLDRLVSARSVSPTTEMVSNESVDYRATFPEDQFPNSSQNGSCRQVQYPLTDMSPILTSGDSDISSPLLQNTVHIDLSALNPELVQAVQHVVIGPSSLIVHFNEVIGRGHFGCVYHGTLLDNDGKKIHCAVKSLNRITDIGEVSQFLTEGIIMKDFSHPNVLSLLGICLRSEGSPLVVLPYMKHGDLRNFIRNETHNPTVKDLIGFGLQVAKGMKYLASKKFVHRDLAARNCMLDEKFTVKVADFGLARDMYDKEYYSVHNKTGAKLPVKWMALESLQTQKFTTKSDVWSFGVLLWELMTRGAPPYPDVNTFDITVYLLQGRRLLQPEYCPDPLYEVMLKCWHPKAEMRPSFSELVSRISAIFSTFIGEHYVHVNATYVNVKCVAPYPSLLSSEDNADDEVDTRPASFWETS
ALK tyrosine kinase receptor (Homo sapiens, UniProt Q9UM73, G1202R), sequence (Q9UM73 19-1620 G1202R limits assumed): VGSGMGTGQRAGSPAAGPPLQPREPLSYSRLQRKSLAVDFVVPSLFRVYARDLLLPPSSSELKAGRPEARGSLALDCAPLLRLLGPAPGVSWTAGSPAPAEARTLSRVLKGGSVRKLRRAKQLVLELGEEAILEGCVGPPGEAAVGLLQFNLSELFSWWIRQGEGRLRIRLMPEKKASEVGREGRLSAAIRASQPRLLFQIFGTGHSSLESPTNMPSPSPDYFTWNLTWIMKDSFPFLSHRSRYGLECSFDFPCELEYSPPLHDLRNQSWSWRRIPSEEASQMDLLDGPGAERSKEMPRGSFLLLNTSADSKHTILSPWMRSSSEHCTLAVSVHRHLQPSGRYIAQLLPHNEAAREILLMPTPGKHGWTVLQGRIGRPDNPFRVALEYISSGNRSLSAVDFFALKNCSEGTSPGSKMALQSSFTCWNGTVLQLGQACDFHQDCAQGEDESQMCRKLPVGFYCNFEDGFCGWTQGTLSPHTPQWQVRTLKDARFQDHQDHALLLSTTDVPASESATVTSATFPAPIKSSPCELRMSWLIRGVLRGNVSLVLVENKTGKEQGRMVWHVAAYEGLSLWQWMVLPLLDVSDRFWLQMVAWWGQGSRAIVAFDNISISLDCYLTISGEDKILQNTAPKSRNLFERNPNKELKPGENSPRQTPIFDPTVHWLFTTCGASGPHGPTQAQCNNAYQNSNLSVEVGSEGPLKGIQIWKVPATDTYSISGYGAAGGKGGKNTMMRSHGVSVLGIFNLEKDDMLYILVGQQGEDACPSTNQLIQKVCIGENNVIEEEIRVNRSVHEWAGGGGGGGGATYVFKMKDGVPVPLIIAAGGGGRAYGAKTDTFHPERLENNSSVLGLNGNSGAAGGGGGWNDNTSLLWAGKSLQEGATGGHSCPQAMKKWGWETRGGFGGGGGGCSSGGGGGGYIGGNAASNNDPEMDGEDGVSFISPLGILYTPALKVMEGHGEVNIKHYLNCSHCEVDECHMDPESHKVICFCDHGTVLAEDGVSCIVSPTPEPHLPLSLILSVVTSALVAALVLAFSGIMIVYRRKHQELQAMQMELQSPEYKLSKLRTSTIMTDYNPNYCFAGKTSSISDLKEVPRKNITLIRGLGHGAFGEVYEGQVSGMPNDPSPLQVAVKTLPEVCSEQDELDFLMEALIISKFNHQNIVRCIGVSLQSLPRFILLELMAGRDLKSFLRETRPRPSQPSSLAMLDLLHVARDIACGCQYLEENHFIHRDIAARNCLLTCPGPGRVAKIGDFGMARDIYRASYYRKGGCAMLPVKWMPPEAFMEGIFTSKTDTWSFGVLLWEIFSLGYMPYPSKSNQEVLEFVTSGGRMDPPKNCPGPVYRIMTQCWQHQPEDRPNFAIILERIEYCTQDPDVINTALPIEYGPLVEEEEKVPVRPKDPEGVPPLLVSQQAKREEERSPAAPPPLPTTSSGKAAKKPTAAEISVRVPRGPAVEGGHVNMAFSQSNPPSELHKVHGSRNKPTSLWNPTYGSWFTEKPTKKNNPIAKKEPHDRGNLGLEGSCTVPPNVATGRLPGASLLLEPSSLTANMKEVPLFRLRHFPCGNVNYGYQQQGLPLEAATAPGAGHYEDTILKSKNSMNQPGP
ALK tyrosine kinase receptor (Homo sapiens, UniProt Q9UM73, L1196M), sequence (Q9UM73 19-1620 L1196M limits assumed): as the sequence (Q9UM73 19-1620 G1202R limits assumed) above, with L1178M, R1184G counted along it

| Compound | IC50 (NCI-H2228) | IC50 (KARPAS-299) | IC50 (HCC78) | IC50 (A549 [4]) | IC50 (A549 [8]) | IC50 (HT-29) | IC50 [1] | IC50 [2] | IC50 [3] | IC50 [5] | IC50 [6] | IC50 [7] |
| --- | --- | --- | --- | --- | --- | --- | --- | --- | --- | --- | --- | --- |
| COc1cc(NC(=O)N2CCN(CCO)CC2)ccc1Nc1ncc(Cl)c(Nc2ccccc2NC(C)=O)n1 | 260 nM | 93 nM | 130 nM | 270 nM | > 10000 nM | 4030 nM | > 1000 nM | 2.7 nM | 6.3 nM | 1.7 nM | > 1000 nM | 6.3 nM |
| COc1cc(NC(=O)N2CCN(C)CC2)ccc1Nc1ncc(Cl)c(Nc2ccccc2NC(C)=O)n1 | 170 nM | 49 nM | 390 nM | 440 nM | 4590 nM | > 10000 nM |  |  |  |  |  |  |
| COC(=O)C1=C(Nc2ccc(Nc3ncc(Cl)c(Nc4ccccc4NC(C)=O)n3)c(OC)c2)CCC1 | 2940 nM | 4300 nM | 870 nM | 1810 nM | > 10000 nM | > 10000 nM |  |  |  |  |  |  |
| CCOC(=O)[C@@H]1CCCN(C(=O)Nc2ccc(Nc3ncc(Cl)c(Nc4ccccc4NC(C)=O)n3)c(OC)c2)C1 | 600 nM | 590 nM | 670 nM | 1550 nM | 2570 nM | > 10000 nM |  |  |  |  |  |  |
| COc1cc(NC(=O)N2CCSCC2)ccc1Nc1ncc(Cl)c(Nc2ccccc2NC(C)=O)n1 | 570 nM | 210 nM | 170 nM | 2360 nM | > 10000 nM | > 10000 nM |  |  |  |  |  |  |
| COc1cc(NC(=O)N2CCCCC2)ccc1Nc1ncc(Cl)c(Nc2ccccc2NC(C)=O)n1 | 640 nM | 240 nM | 210 nM | 970 nM | > 10000 nM | > 10000 nM |  |  |  |  |  |  |
| COc1cc(NC(=O)NC2CCC(=O)CC2)ccc1Nc1ncc(Cl)c(Nc2ccccc2NC(C)=O)n1 | 550 nM | 77 nM | 67 nM | 190 nM | 1720 nM | > 10000 nM | 325 nM | 3.9 nM | 2.5 nM | 3.7 nM | > 1000 nM | 9.3 nM |
| COc1cc(N2CCCNC2=O)ccc1Nc1ncc(Cl)c(Nc2ccccc2NC(C)=O)n1 | 220 nM | 100 nM | 89 nM | 170 nM | > 10000 nM | 6070 nM | > 1000 nM | 5.1 nM | 4.7 nM | 5.3 nM | > 1000 nM | 10.2 nM |
| COc1cc(NC(=O)N2CC(O)C2)ccc1Nc1ncc(Cl)c(Nc2ccccc2NC(C)=O)n1 | 730 nM | 270 nM | 490 nM | 1070 nM | > 10000 nM | 4150 nM |  |  |  |  |  |  |
| COc1cc(NC(=O)NCCCN2CCCC2)ccc1Nc1ncc(Cl)c(Nc2ccccc2NC(C)=O)n1 | 720 nM | 290 nM | 110 nM | 1020 nM | 2970 nM | > 10000 nM |  |  |  |  |  |  |
| COc1cc(NC(=O)N2CCN(C(=O)OC(C)(C)C)CC2)ccc1Nc1ncc(Cl)c(Nc2ccccc2NC(C)=O)n1 | 930 nM | 1120 nM | 230 nM | 1170 nM | 2310 nM | 3110 nM |  |  |  |  |  |  |
| COc1cc(NC(=O)NC2CCN(C(=O)OC(C)(C)C)CC2)ccc1Nc1ncc(Cl)c(Nc2ccccc2NC(C)=O)n1 | 840 nM | 1020 nM | 170 nM | 1830 nM | > 10000 nM | 5510 nM |  |  |  |  |  |  |
| COc1cc(NC(=O)NCCCN2CCOCC2)ccc1Nc1ncc(Cl)c(Nc2ccccc2NC(C)=O)n1 | 780 nM | 490 nM | 270 nM | 1100 nM | 3100 nM | > 10000 nM |  |  |  |  |  |  |
| COc1cc(N2CCCC2=O)ccc1Nc1ncc(Cl)c(Nc2ccccc2NC(C)=O)n1 | 220 nM | 220 nM | 97 nM | 410 nM | 4130 nM | 1530 nM | 532 nM | 2.9 nM | 6.2 nM | 4.4 nM | > 1000 nM | 15.7 nM |
| COc1cc(NC(=O)N2CCC(C(=O)O)CC2)ccc1Nc1ncc(Cl)c(Nc2ccccc2NC(C)=O)n1 | 1850 nM | 1080 nM | 390 nM | 970 nM | > 10000 nM | 3610 nM |  |  |  |  |  |  |
| CCOC(=O)C1CCN(C(=O)Nc2ccc(Nc3ncc(Cl)c(Nc4ccccc4NC(C)=O)n3)c(OC)c2)CC1 | 1210 nM | 450 nM | 870 nM | 940 nM | 1720 nM | > 10000 nM |  |  |  |  |  |  |
| COc1cc(NC(=O)NN2CCOCC2)ccc1Nc1ncc(Cl)c(Nc2ccccc2NC(C)=O)n1 | 230 nM | 340 nM | 310 nM | 1490 nM | > 10000 nM | 2250 nM |  |  |  |  |  |  |

The next lines start with results.

| IC50 (NCI-H2228) | IC50 (KARPAS-299) | IC50 (HCC78) | IC50 (A549 [4]) | IC50 (A549 [8]) | IC50 (HT-29) | Compound | IC50 [1] | IC50 [2] | IC50 [3] | IC50 [5] | IC50 [6] | IC50 [7] |
| --- | --- | --- | --- | --- | --- | --- | --- | --- | --- | --- | --- | --- |
| 470 nM | 840 nM | 610 nM | 740 nM | > 10000 nM | 6570 nM | COc1cc(NC(=O)NC2CCCC2)ccc1Nc1ncc(Cl)c(Nc2ccccc2NC(C)=O)n1 |  |  |  |  |  |  |
| 530 nM | 830 nM | 410 nM | 2410 nM | 4120 nM | > 10000 nM | COc1cc(NC(=O)N[C@H]2CC[C@H](C)CC2)ccc1Nc1ncc(Cl)c(Nc2ccccc2NC(C)=O)n1 |  |  |  |  |  |  |
| 340 nM | 390 nM | 560 nM | 1160 nM | 2450 nM | 6770 nM | COc1cc(NC(=O)N2CCC2)ccc1Nc1ncc(Cl)c(Nc2ccccc2NC(C)=O)n1 |  |  |  |  |  |  |
| 740 nM | 660 nM | 230 nM | 650 nM | 2150 nM | 5570 nM | COc1cc(N2CCC2=O)ccc1Nc1ncc(Cl)c(Nc2ccccc2NC(C)=O)n1 |  |  |  |  |  |  |
| 630 nM | 210 nM | 390 nM | 610 nM | > 10000 nM | > 10000 nM | COc1cc(N2C(=O)CCC2=O)ccc1Nc1ncc(Cl)c(Nc2ccccc2NC(C)=O)n1 |  |  |  |  |  |  |
| 550 nM | 340 nM | 95 nM | 1230 nM | 2300 nM | > 10000 nM | COc1cc(NC(=O)N[C@H]2CC[C@H](O)CC2)ccc1Nc1ncc(Cl)c(Nc2ccccc2NC(C)=O)n1 |  |  |  |  |  |  |
| 570 nM | 870 nM | 390 nM | 2170 nM | > 10000 nM | 4730 nM | COc1cc(NC2CCCCC2)ccc1Nc1ncc(Cl)c(Nc2ccccc2NC(C)=O)n1 |  |  |  |  |  |  |
| 810 nM | 890 nM | 870 nM | 710 nM | > 10000 nM | > 10000 nM | COc1cc(NC(=O)NC2CC2)ccc1Nc1ncc(Cl)c(Nc2ccccc2NC(C)=O)n1 |  |  |  |  |  |  |
| 530 nM | 310 nM | 660 nM | 1070 nM | > 10000 nM | > 10000 nM | COc1cc(N2CCCCC2=O)ccc1Nc1ncc(Cl)c(Nc2ccccc2NC(C)=O)n1 |  |  |  |  |  |  |
| 970 nM | 1050 nM | 670 nM | 1020 nM | > 10000 nM | > 10000 nM | COc1cc(NC2CCCC2)ccc1Nc1ncc(Cl)c(Nc2ccccc2NC(C)=O)n1 |  |  |  |  |  |  |
| 460 nM | 720 nM | 510 nM | 1540 nM | > 10000 nM | > 10000 nM | COc1cc(NC(=O)NC2CCCCC2)ccc1Nc1ncc(Cl)c(Nc2ccccc2NC(C)=O)n1 |  |  |  |  |  |  |
| 2530 nM | 5040 nM | 920 nM | 3130 nM | > 10000 nM | > 10000 nM | CCOC(=O)C1=C(Nc2ccc(Nc3ncc(Cl)c(Nc4ccccc4NC(C)=O)n3)c(OC)c2)CCC1 |  |  |  |  |  |  |
| 45 nM | 37 nM | 39 nM | 510 nM | 1430 nM | 1030 nM | Cc1cc(Nc2ncc(Cl)c(Nc3ccccc3S(=O)(=O)C(C)C)n2)c(OC(C)C)cc1C1CCNCC1 [CERITINIB] | 271 nM |  |  |  |  |  |
| 610 nM | 170 nM | 530 nM | 1270 nM | > 10000 nM | 3250 nM | COc1cc(NC(=O)N2CCC(C)CC2)ccc1Nc1ncc(Cl)c(Nc2ccccc2NC(C)=O)n1 |  |  |  |  |  |  |
| 1640 nM | 1030 nM | 230 nM | 1110 nM | 5190 nM | > 10000 nM | COc1cc(NC2=CC(=O)CCC2)ccc1Nc1ncc(Cl)c(Nc2ccccc2NC(C)=O)n1 |  |  |  |  |  |  |
| 1730 nM | 510 nM | 610 nM | 1370 nM | 5310 nM | > 10000 nM | COc1cc(NC(=O)C2CCN(C(=O)OC(C)(C)C)CC2)ccc1Nc1ncc(Cl)c(Nc2ccccc2NC(C)=O)n1 |  |  |  |  |  |  |
